Reference: EP1568368A1, “Pharmaceutical combination comprising a CDK inhibitor and a VEGF receptor inhibitor” (Schering Aktiengesellschaft, priority 2004, dated 2005)

Test system: MaTu estrogen-independent human mammary carcinoma cells
Test: MaTu human estrogen-independent mammary carcinoma xenograft model, tumor growth inhibition (tumor area by caliper)
Format: in vivo, NMRI nude mice
Set-up: inhibition of the growth of the MaTu xenograft model: dose or concentration left out as unconfirmed
Conditions: monotherapy
Protocol: MaTu (EPO-GmbH, Berlin) estrogen-independent human mammary carcinoma cells, obtained from cell culture, were implanted s.c. in the inguinal region of femal NMRI nude mice. Treatment was started when the tumors were approximately 20 mm^2 in size. The groups were closed when the tumors within a treatment group reached a size of approximately 100 mm^2.
Experimental groups included the following: • 1) Control vehicle • 2) a CDK inhibitor ([…]) • 3) a VEGF-R inhibitor (50 mg/kg, p.o. twice daily, d4-d21) • 4) a CDK inhibitor ([…]) in combination with a VEGF-R inhibitor (50 mg/kg, p.o. twice daily, d4-d21) CDK inhibitor = N-[5-[[[5-(1,1-dimethylethyl)-2-oxazolyl] methyl]thio]-2-thiazolyl]-4-piperidinecarboxamide VEGF-R inhibitor = (4-Chlorophenyl)[4-(4-pyridylmethyl)phthalazin-1-yl]ammonium hydrogen succinate
Tumor area was determined by caliper measurement twice weekly. The example was designed to determine the initial response of a human estrogen-independent mammary carcinoma xenograft model to treatment with a specific CDK inhibitor, to treatment with a specific VEGF-R inhibitor, and to treatment with a combination of a CDK inhibitor together with a VEGF-R inhibitor. The tumor growth inhibiting effect of the compounds was investigated in the MaTu human estrogen-independent mammary carcinoma model, xenografted in NMRI nude mice. […]

Compound | inhibition of the growth of the MaTu xenograft model (i.p. once daily, d4-d21, s.c. xenograft in female NMRI nude mice) | inhibition of tumor growth (50 mg/kg p.o. twice daily, d4-d21, s.c. MaTu xenograft in female NMRI nude mice)
CC(C)(C)c1cnc(CSc2cnc(NC(=O)C3CCNCC3)s2)o1 [CDK inhibitor, N-[5-[[[5-(1,1-dimethylethyl)-2-oxazolyl]methyl]thio]-2-thiazolyl]-4-piperidinecarboxamide] | ineffective | 
Clc1ccc(Nc2nnc(Cc3ccncc3)c3ccccc23)cc1.O=C(O)CCC(=O)O [VEGF-R inhibitor, (4-Chlorophenyl)[4-(4-pyridylmethyl)phthalazin-1-yl]ammonium hydrogen succinate] |  | initially an inhibition of tumor growth
